Laboratory results reported in patent US12691156B2, “Prebiotic compositions and method for promoting growth of Hafnia alvei by using the same” (TCI CO., LTD., priority 2022, dated 2026).

Test system: Hafnia alvei BCRC10906
Test: Influence of prebiotic compositions in different combinations on Hafnia alvei growth (OD600, Embodiment 4)
Assay type: cell-based
Conditions: for ability to promote the growth of Hafnia alvei (in words) / Relative bacterial count (%): 1 g formula in 10 mL BHI, 24 hours; for Absorbance (OD600): 10 mL BHI medium containing 1 g formula, anaerobic culture 37° C. 24 hours, control group 0.078 ± 0.039; for Relative bacterial count (%): converted from OD600, control group = 100 ± 50
Excerpt: The groups were divided into a control group and 11 experimental groups. The experimental groups included 6 single-formula experimental groups and 5 complex-formula experimental groups, namely a single-formula experimental group to a single-formula experimental group, and a complex-formula experimental group to a complex-formula experimental group. The adopted liquid medium was a brain heart infusion broth (BHI, hereinafter referred to as the BHI medium, and purchased from DifcoTM). The adopted test strains were Hafnia alvei BCRC10906 purchased from Bioresource Collection and Research Center (BCRC). Each group is shown as Table 5. Control group: No prebiotics were added, and the experimental medium was 10 ml of the BHI medium. 6 single-formula experimental groups: A single-formula experimental group containing erythritol (purchased from SWEET TOWN ENTERPRISE CORP.), a single-formula experimental group containing arabinose (purchased from […] Co., Ltd.), a single-formula experimental group containing Arabic gum (purchased from Buildmore Enterprise Co., Ltd.), a single-formula experimental group containing fructooligosaccharide (purchased from Panel Japan Co., Ltd.), a single-formula experimental group containing soybean peptide powder (purchased from FUJI OIL Co. Ltd.), and a single-formula experimental group containing the black tea ferment prepared in Embodiment 1. The experimental medium of each group was 10 ml of the BHI medium containing 1 g of prebiotics (namely, erythritol, arabinose, Arabic gum, fructooligosaccharide, soybean peptide powder, the black tea ferment prepared in Embodiment 1. The 6 single-formula experimental groups were also called single-ingredient formulas to [6]). 5 complex-formula experimental groups: A complex-formula experimental group containing the black tea ferment prepared in Embodiment 1 and the soybean peptide powder; a complex-formula experimental group containing the black tea ferment prepared in Embodiment 1, the soybean peptide powder and erythritol; a complex-formula experimental group containing the black tea ferment prepared in Embodiment 1, the soybean peptide powder and fructooligosaccharide; a complex-formula experimental group containing the black tea ferment prepared in Embodiment 1, the soybean peptide powder and arabinose; and a complex-formula experimental group containing the black tea ferment prepared in Embodiment 1, the soybean peptide powder and Arabic gum. The weight ratio of the prebiotic compositions of the complex-formula experimental groups was 1:1 or 1:1:1. The experimental medium of each group was 10 ml of the BHI medium containing 1 g of prebiotic composition (namely, a combination of 0.5 g of the black tea ferment prepared in Embodiment 1 and 0.5 g of the soybean peptide powder, a combination of about 0.33 g of the black tea ferment prepared in Embodiment 1, about 0.33 g of the soybean peptide powder and about 0.33 g of erythritol, a combination of about 0.33 g of the black tea ferment prepared in Embodiment 1, about 0.33 g of the soybean peptide powder and about 0.33 g of fructooligosaccharide , a combination of about 0.33 g of the black tea ferment prepared in Embodiment 1, about 0.33 g of the soybean peptide powder and about 0.33 g of arabinose, and a combination of about 0.33 g of the black tea ferment prepared in Embodiment 1, about 0.33 g of the soybean peptide powder and about 0.33 g of Arabic gum; and the 5 complex-formula experimental groups are also referred to as complex-ingredient formulas to [5]). [table] Firstly, 5% (v/v) of Hafnia alvei was inoculated to the BHI medium, and activated in an anaerobic operation box (5% of hydrogen, 10% of carbon dioxide and 85% of nitrogen) at 37° C. for 24 hours to obtain an experimental bacterial solution. […]

Structure (SMILES)	ability to promote the growth of Hafnia alvei (in words)	Absorbance (OD600)	Absorbance (OD600) (listed as single-formula experimental group [1])	Relative bacterial count (%)	Absorbance (OD600) (listed as single-formula experimental group [2])
OC[C@@H](O)[C@@H](O)CO [Single-formula experimental group [1], Erythritol]	promoted the growth of Hafnia alvei	0.169 ± 0.026	0.169±0.026	217 ± 34	
O=C[C@@H](O)[C@H](O)[C@H](O)CO [Single-formula experimental group [2], Arabinose]	promoted the growth of Hafnia alvei	0.176 ± 0.038		226 ± 49	0.176±0.038
